Laboratory results from patent US20230059582A1, “CANNABINOID DERIVATIVES” (CANOPY GROWTH CORPORATION, priority 2019, published 2023).
Read-outs that look alike come from different tables or passages of the source.

Columns and labels:
human CB1 receptor = biological target: T1, human CB1 receptor (Homo sapiens, UniProt P21554); test: CB1 radioligand competitive binding assay ([3H]CP 55,940 displacement); conditions: for Selectivity CB1: fold difference between CB1 and CB2 binding, printed in the column of the receptor with higher affinity, 1.00 in both = about the same affinity
T1 construct: host or cells: CHO-K1 (stably transfected cell line, membranes prepared in house)

human CB2 receptor = biological target: T2, human CB2 receptor (Homo sapiens, UniProt P34972); test: CB2 radioligand competitive binding assay ([3H]CP 55,940 displacement); conditions: for Selectivity CB2: fold difference between CB1 and CB2 binding, printed in the column of the receptor with higher affinity, 1.00 in both = about the same affinity
T2 construct: host or cells: CHO-K1 (stably transfected cell line, membranes prepared in house)
Experimental: Compounds of the present disclosure were tested for CB1 receptor binding affinity and for CB2 receptor binding affinity. As used herein, “binding affinity” is represented by the IC50 value, which was experimentally determined as described herein. The lower the IC50 value the higher the binding affinity. A compound of the present disclosure may be said to have “binding selectivity” if it has a higher binding affinity for one receptor compared to the other.
The membranes were prepared from CHO-K1 (Chinese hamster ovary) cells stably transfected with the human CB2 receptor (Cat. #ES-111-C; Perkin Elmer, Boston, Mass.). The cells were grown adherently and maintained in Ham's F12 medium containing 10% fetal bovine serum (FBS), penicillin, streptomycin and geneticin (G418) at 37° C. in a humid atmosphere of 5% CO2 following the manufacturer's instructions.
For membrane preparation the cells were washed with PBS and scraped off the plates in cold homogenization buffer (25 mM HEPES (pH 7.4), 2 mM EDTA) containing protease inhibitor cocktail (Sigma Cat. #P8340). The cell suspension was homogenized with a Pro-PK-01200D Polytron Homogenizer (Pro Scientific) and then centrifuged for 30 min at 120,000×g. The supernatant was discarded and the pellet was re-suspended in the homogenization buffer and stored at −80° C. until the time of use.
In this experiment, 3H radiolabeled CP 55,940, i.e. [3H]CP 55,940 (Perkin Elmer, Boston, Mass.), was used as a radioligand for the CB2 receptor to determine the binding affinity of compounds for the CB2 receptor (Scheme 3; above).
The competition binding experiments (single dose and dose-response) were performed by incubating 0.6 nM of [3H]CP55,940 (specific activity 101 Ci/mmol, Perkin Elmer) and different concentrations of compounds disclosed herein with membranes prepared as above from CHO-K1 cells expressing human CB2 receptor (1 μg of protein/well), 50 mM Tris-HCl (pH 7.4), 5 mM MgCl2, 1 mM CaCl2, and 2 mg/mL BSA.
For the single dose experiments, the compound stocks (usually 10 mM in DMSO) were diluted to working stocks in the binding buffer to give the final compound concentrations of 10 μM and 1 μM. For the dose-response experiments the test compounds were sequentially diluted to provide the desired concentration range for the IC50 determination. In each case the compounds were pre-incubated with the membrane for 20 min, before adding the radioligand.
After incubation with the radioligand for 60 min at 37° C., the incubation was terminated by rapid filtration of assay mixture through MultiScreen®HTS^+ 96-well filter plates (Millipore, Cat. #MSFCNXB), pre-soaked for 60 min with 50 mM Tris-HCl (pH 7.4) containing 0.33% polyethylenimine (PEI). The nonspecific binding (NSB) was determined in the presence of 10 μM unlabelled CP55,940. After drying the filter plate at 50° C. for at least 60 min, the filter-bound radioactivity was determined by scintillation spectrometry using the 1450 MicroBeta Plate Counter (Perkin Elmer, Boston, Mass.). From the dose-response experiments, the IC50 values were determined (see Table 1, CB2 IC50).
Where the test compound had about the same affinity for both receptors, this is represented by a value of 1.00 in the column for both receptors.

[1] = 0.8 nM [3H]CP 55,940, membranes from CHO-K1 cells expressing human CB1 receptor, dose-response, read-out: CB1 IC50
[2] = 0.6 nM [3H]CP 55,940, membranes from CHO-K1 cells expressing human CB2 receptor, dose-response, read-out: CB2 IC50

T1 sequence (P21554 whole entry): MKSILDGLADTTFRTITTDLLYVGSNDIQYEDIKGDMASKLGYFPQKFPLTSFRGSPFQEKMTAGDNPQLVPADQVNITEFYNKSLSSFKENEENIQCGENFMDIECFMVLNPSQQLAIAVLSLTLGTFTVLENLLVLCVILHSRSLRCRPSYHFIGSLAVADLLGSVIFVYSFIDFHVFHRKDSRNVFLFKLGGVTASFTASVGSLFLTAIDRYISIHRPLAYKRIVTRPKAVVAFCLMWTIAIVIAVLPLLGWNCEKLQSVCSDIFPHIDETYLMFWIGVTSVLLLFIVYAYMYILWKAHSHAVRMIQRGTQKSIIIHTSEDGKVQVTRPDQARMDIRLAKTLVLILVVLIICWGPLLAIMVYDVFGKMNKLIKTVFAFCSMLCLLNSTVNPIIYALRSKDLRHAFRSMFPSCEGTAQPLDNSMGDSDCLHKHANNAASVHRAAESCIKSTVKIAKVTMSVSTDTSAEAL
T2 sequence (P34972 whole entry): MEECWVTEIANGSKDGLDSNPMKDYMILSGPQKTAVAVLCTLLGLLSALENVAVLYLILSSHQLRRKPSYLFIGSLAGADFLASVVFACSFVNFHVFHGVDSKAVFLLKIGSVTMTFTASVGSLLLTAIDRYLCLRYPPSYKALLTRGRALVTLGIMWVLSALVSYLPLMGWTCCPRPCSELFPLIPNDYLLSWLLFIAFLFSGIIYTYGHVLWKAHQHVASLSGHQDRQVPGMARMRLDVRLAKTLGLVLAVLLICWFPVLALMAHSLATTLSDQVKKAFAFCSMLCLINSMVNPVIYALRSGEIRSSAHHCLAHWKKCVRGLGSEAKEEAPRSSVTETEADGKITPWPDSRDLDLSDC

Q: What does the source list for `CCCCCCC(C)(C)c1cc(OCOC(=O)C(C)(C)C)c(CC=C(C)CCC=C(C)C)c(OCOC(=O)C(C)(C)C)c1` [22′, ((2-(3,7-dimethylocta-2,6-dien-1-yl)-5-(2-methyloctan-2-yl)-1,3-phenylene)bis(oxy))bis(methylene) bis(2,2-dimethylpropanoate)]?
A: IC50 (human CB1 receptor; [1]): > 5 µM; IC50 (human CB2 receptor; [2]): 1 to 4.99 µM; Selectivity CB2 (human CB2 receptor): 7.14 fold

Q: “dimethyl (((5-butyl-2-(3,7-dimethylocta-2,6-dien-1-yl)-1,3-phenylene)bis(oxy))bis(methylene)) bis(phenylcarbamate) [23′]” was tested. Which IC50 (human CB1 receptor; [1]) did it give?
A: > 5 µM

Q: And the IC50 (human CB2 receptor; [2])?
A: > 5 µM

Q: And the “Selectivity CB2” value (human CB2 receptor)?
A: 1.88 fold

Q: For `CCCCCc1cc(O)c(CC=C(C)CCC=C(C)C)c(OCOC(=O)OCC)c1` [Compound 4, (2-(3,7-dimethylocta-2,6-dien-1-yl)-3-hydroxy-5-pentylphenoxy)methyl ethyl carbonate], which IC50 (human CB1 receptor; [1]) is on record?
A: 1 to 4.99 µM

Q: What about the IC50 (human CB2 receptor; [2]) of the same compound?
A: < 0.5 µM

Q: What about the “Selectivity CB2” value (human CB2 receptor) of the same compound?
A: 7.82 fold

Q: Which IC50 (human CB1 receptor; [1]) does the source give for `CCCc1cc(O)c(C/C=C(\C)CCC=C(C)C)c(OCOC(=O)C(C)(C)C)c1` [Compound 19, (2-(3,7-dimethylocta-2,6-dien-1-yl)-3-hydroxy-5-propylphenoxy)methyl pivalate] here?
A: 0.5 to 0.99 µM

Q: And the IC50 (human CB2 receptor; [2])?
A: < 0.5 µM

Q: What about the “Selectivity CB2” value (human CB2 receptor) of the same compound?
A: 3.89 fold

Q: How did the IC50 (human CB1 receptor; [1]) turn out when `CCCCCc1cc(OCOC2CCCCC2)c(CC=C(C)CCC=C(C)C)c(OCOC2CCCCC2)c1` [18′, ((((2-(3,7-dimethylocta-2,6-dien-1-yl)-5-pentyl-1,3-phenylene)bis(oxy))bis(methylene))bis(oxy))dicyclohexane] was run?
A: > 5 µM

Q: What about the “Selectivity CB1” value (human CB1 receptor) of the same compound?
A: 1.00 fold

Q: What about the IC50 (human CB2 receptor; [2]) of the same compound?
A: > 5 µM

Q: What about the “Selectivity CB2” value (human CB2 receptor) of the same compound?
A: 1.00 fold

Q: `CCCCCc1cc(O)c(C/C=C(\C)CCC=C(C)C)c(OCOCCOC)c1` [Compound 17, 2-(3,7-dimethylocta-2,6-dien-1-yl)-3-((2-methoxyethoxy)methoxy)-5-pentylphenol] was tested. Which IC50 (human CB1 receptor) did it give?
A: 1 to 4.99 µM

Q: What about the IC50 (human CB2 receptor) of the same compound?
A: 1 to 4.99 µM

Q: And the “Selectivity CB2” value (human CB2 receptor)?
A: 4.00 fold

Q: What does the source list for `CCCCCc1cc(OCOC(=O)OCC)c(CC=C(C)CCC=C(C)C)c(OCOC(=O)OCC)c1` [4′, ((2-(3,7-dimethylocta-2,6-dien-1-yl)-5-pentyl-1,3-phenylene)bis(oxy))bis(methylene) diethyl bis(carbonate)]?
A: IC50 (human CB1 receptor; [1]): > 5 µM; IC50 (human CB2 receptor; [2]): 0.5 to 0.99 µM; Selectivity CB2 (human CB2 receptor): 24.69 fold

Q: What does the source list for `CCCc1cc(O)c(C/C=C(\C)CCC=C(C)C)c(OCOC(=O)OCC)c1` [Compound 20, (2-(3,7-dimethylocta-2,6-dien-1-yl)-3-hydroxy-5-propylphenoxy)methyl ethyl carbonate]?
A: IC50 (human CB1 receptor; [1]): 1 to 4.99 µM; IC50 (human CB2 receptor; [2]): 1 to 4.99 µM; Selectivity CB2 (human CB2 receptor): 1.80 fold

Q: Which IC50 (human CB1 receptor; [1]) does the source give for `CCCCCc1cc(OCOC(=O)C(C)(C)C)c(CC=C(C)CCC=C(C)C)c(OCOC(=O)C(C)(C)C)c1` [7′, ((2-(3,7-dimethylocta-2,6-dien-1-yl)-5-pentyl-1,3-phenylene)bis(oxy))bis(methylene) bis(2,2-dimethylpropanoate)] here?
A: > 5 µM

Q: What about the “Selectivity CB1” value (human CB1 receptor) of the same compound?
A: 1.00 fold

Q: And the IC50 (human CB2 receptor; [2])?
A: > 5 µM

Q: And the “Selectivity CB2” value (human CB2 receptor)?
A: 1.00 fold

Q: With `CCCCCc1cc(O)c(C/C=C(\C)CCC=C(C)C)c(OCN(C(=O)OC)c2ccccc2)c1` [Compound 23, methyl ((2-(3,7-dimethylocta-2,6-dien-1-yl)-3-hydroxy-5-pentylphenoxy)methyl)(phenyl)carbamate] as the compound, how does the IC50 (human CB1 receptor; [1]) read?
A: < 0.5 µM

Q: And the IC50 (human CB2 receptor; [2])?
A: < 0.5 µM

Q: What about the “Selectivity CB2” value (human CB2 receptor) of the same compound?
A: 1.37 fold

Q: Which IC50 (human CB1 receptor; [1]) does the source give for `CCCCCc1cc(O)c(CC=C(C)CCC=C(C)C)c(OCOC2CCCCC2)c1` [Compound 18, 3-((cyclohexyloxy)methoxy)-2-(3,7-dimethylocta-2,6-dien-1-yl)-5-pentylphenol] here?
A: > 5 µM

Q: And the IC50 (human CB2 receptor; [2])?
A: < 0.5 µM

Q: What about the “Selectivity CB2” value (human CB2 receptor) of the same compound?
A: 28.00 fold

Q: How did the IC50 (human CB1 receptor; [1]) turn out when `CCCCCc1cc(O)c(C/C=C(\C)CCC=C(C)C)c(OCOCC)c1` [Compound 16, 2-(3,7-dimethylocta-2,6-dien-1-yl)-3-(ethoxymethoxy)-5-pentylphenol] was run?
A: > 5 µM

Q: What about the IC50 (human CB2 receptor; [2]) of the same compound?
A: 1 to 4.99 µM

Q: What about the “Selectivity CB2” value (human CB2 receptor) of the same compound?
A: 2.83 fold

Q: Which IC50 (human CB1 receptor; [1]) does the source give for `CCCCCCC(C)(C)c1cc(O)c(CC=C(C)CCC=C(C)C)c(OCOC(=O)C(C)(C)C)c1` [Compound 22, (2-(3,7-dimethylocta-2,6-dien-1-yl)-3-hydroxy-5-(2-methyloctan-2-yl)phenoxy)methyl pivalate] here?
A: 1 to 4.99 µM

Q: What about the IC50 (human CB2 receptor; [2]) of the same compound?
A: < 0.5 µM

Q: And the “Selectivity CB2” value (human CB2 receptor)?
A: 7.25 fold

Q: What does the source list for `CCCCCc1cc(O)c(CC=C(C)CCC=C(C)C)c(OCOC(=O)C(C)(C)C)c1` [Compound 7, (2-(3,7-dimethylocta-2,6-dien-1-yl)-3-hydroxy-5-pentylphenoxy)methyl pivalate]?
A: IC50 (human CB1 receptor; [1]): 0.5 to 0.99 µM; IC50 (human CB2 receptor; [2]): < 0.5 µM; Selectivity CB2 (human CB2 receptor): 16.02 fold

Q: Which results are given for `CCCCCCC(C)(C)c1cc(O)c(C/C=C(\C)CCC=C(C)C)c(OCOC(=O)OCC)c1` [Compound 21, (2-(3,7-dimethylocta-2,6-dien-1-yl)-3-hydroxy-5-(2-methyloctan-2-yl)phenoxy)methyl ethyl carbonate]?
A: IC50 (human CB1 receptor): 0.5 to 0.99 µM; IC50 (human CB2 receptor): < 0.5 µM; Selectivity CB2 (human CB2 receptor): 6.92 fold
